Test results from patent US8629293B2, “Process for the preparation of FE(III) chelates of N,N′-DI(2-hydroxybenzyl)-ethylenediamine-N,N′-diacetic acid and its derivatives” (Przedsiebiorstwo Produkcyjno-Consultingowe Adob SP. Z O.O. …, priority 2009, dated 2014).

How the values were obtained:
[1] = system: 7-year old trees of flat peach (Prunus persica var. platycarpa) grafted on the GF677 root stock with visible symptoms of chlorosis; test: Field test, testing field No. 2: SPAD index of leaves; format: in vivo; conditions: for ΔSPAD index of leaves: 0.9 g of the chelated Fe/tree
Method: (§1) The comparison included two chelate agents for supplementing iron deficiencies: HBED/Fe^3+ as well as the commercially available, highly purified EDDHA/Fe^3+. The studies were carried out on two fields with the soil having an alkaline pH as well as a high concentration of calcium ions. The chelates were applied directly to the soil by means of a dripper immersed in the soil.
7-year old trees of flat peach (Prunus persica var. platycarpa) grafted on the GF677 root stock with visible symptoms of chlorosis
The chelates were applied at the following concentrations: • EDDHA/Fe^3+: high concentration (0.9 g of the chelated Fe/tree) • HBED/Fe^3+: high concentration (0.9 g of the chelated Fe/tree) • control trial: without Fe
The chelate solutions were dosed directly to the ground below the dripper. In this case, the whole dose of the chelates were applied in one portion. The symptoms of chlorosis were visible at the beginning of the experiment.
The samples for determination of the SPAD index of leaves were taken approximately every two weeks (on day 0, 20, 40 and 63 after application of the chelates).

[2] = system: 10-year old nectarine trees, cultivar "Zephyr" grafted on the GF677 root stock; test: Field test, testing field No. 1: SPAD index; format: in vivo
Method: as §1
10-year old nectarine trees, cultivar “Zephyr” grafted on the GF677 root stock
The chelates were applied at the following concentrations: • EDDHA/Fe^3+: high concentration (0.9 g of the chelated Fe/tree) • HBED/Fe^3+: low concentration (0.45 g of the chelated Fe/tree) • HBED/Fe^3+: high concentration (0.9 g of the chelated Fe/tree) • control trial: without Fe
The chelate solutions of various concentrations were applied in three portions (50%, 30%, and finally 20% of the whole dose, respectively) directly to the ground below the dripper.
The SPAD index was measured approximately every two weeks: on day 14, 29, 44, 61, 88 and 99 after application of the chelates.

[3] = 0.45 g of the chelated Fe/tree, day 14 after application
[4] = 0.45 g of the chelated Fe/tree, day 29 after application
[5] = 0.45 g of the chelated Fe/tree, day 44 after application
[6] = 0.45 g of the chelated Fe/tree, day 61 after application
[7] = 0.45 g of the chelated Fe/tree, day 88 after application
[8] = 0.45 g of the chelated Fe/tree, day 99 after application
[9] = 0.9 g of the chelated Fe/tree, day 14 after application
[10] = 0.9 g of the chelated Fe/tree, day 29 after application
[11] = 0.9 g of the chelated Fe/tree, day 44 after application
[12] = 0.9 g of the chelated Fe/tree, day 61 after application
[13] = 0.9 g of the chelated Fe/tree, day 88 after application
[14] = 0.9 g of the chelated Fe/tree, day 99 after application

In the case of `O=C([O-])CN(CCN(CC(=O)[O-])Cc1ccccc1[O-])Cc1ccccc1[O-].[Fe+3].[Na+]` [HBED/Fe^3+], the “ΔSPAD index of leaves” value ([1]; day 0 after application) is reported as 0, the “ΔSPAD index of leaves” value ([1]; day 20 after application) is reported as 11.50 and the “ΔSPAD index of leaves” value ([1]; day 40 after application) is reported as 16.75. The “ΔSPAD index of leaves” value ([1]; day 63 after application) was 16.23, the “ΔSPAD index compared with EDDHA/Fe3+” value ([1]; Table 5) was “does not show any significant differences” and the “Use against iron deficiencies” value ([1]; soils of alkaline pH and high concentration of calcium ions) was “may be successfully used against iron deficiencies”. For the same compound, the “The SPAD index of the fructifying branches” value [2, 3] was 36.46, the “The SPAD index of the non-fructifying branches” value [2, 3] was 34.39 and the “The SPAD index of the fructifying branches” value [2, 4] was 37.82. For the same compound, the “The SPAD index of the non-fructifying branches” value [2, 4] was 36.46, the “The SPAD index of the fructifying branches” value [2, 5] was 37.09 and the “The SPAD index of the non-fructifying branches” value [2, 5] was 34.46. The “The SPAD index of the fructifying branches” value [2, 6] was 36.54, the “The SPAD index of the non-fructifying branches” value [2, 6] was 34.69 and the “The SPAD index of the fructifying branches” value [2, 7] was 38.64. For the same compound, the “The SPAD index of the non-fructifying branches” value [2, 7] was 37.46, the “The SPAD index of the fructifying branches” value [2, 8] was 37.36 and the “The SPAD index of the non-fructifying branches” value [2, 8] was 36.54. For the same compound, the “The SPAD index of the fructifying branches” value [2, 9] was 35.45, the “The SPAD index of the non-fructifying branches” value [2, 9] was 35.69 and the “The SPAD index of the fructifying branches” value [2, 10] was 37.91. For the same compound, the “The SPAD index of the non-fructifying branches” value [2, 10] was 35.77, the “The SPAD index of the fructifying branches” value [2, 11] was 37.27 and the “The SPAD index of the non-fructifying branches” value [2, 11] was 36.54. For the same compound, the “The SPAD index of the fructifying branches” value [2, 12] was 37.64, the “The SPAD index of the non-fructifying branches” value [2, 12] was 33.69 and the “The SPAD index of the fructifying branches” value [2, 13] was 39.73. For the same compound, the “The SPAD index of the non-fructifying branches” value [2, 13] was 39.00, the “The SPAD index of the fructifying branches” value [2, 14] was 37.27 and the “The SPAD index of the non-fructifying branches” value [2, 14] was 37.46. The “SPAD index values compared with EDDHA/Fe3+” value ([2]; fructifying and non-fructifying branches, Tables 3 and 4) was “comparable” and the “Effect on symptoms of chlorosis” value ([2]; testing field No. 1) was “effectively reduces the symptoms of chlorosis”.
